The values that follow are results of earlier work, collected in patent publication US8715625B1, “Natural oral care compositions” (The Clorox Company, priority 2010, dated 2014).

The data set has as its system plaque. To be noted: two tests conducted by Purdue University's Dental Science Research Group.

`C=C1C[C@@]23CC[C@H]4[C@@](C)(CCC[C@@]4(C)C(=O)O[C@@H]4O[C@H](CO)[C@@H](O)[C@H](O)[C@H]4O)[C@@H]2CC[C@]1(O[C@@H]1O[C@H](CO)[C@@H](O)[C@H](O)[C@H]1O[C@@H]1O[C@H](CO)[C@@H](O)[C@H](O)[C@H]1O)C3` [Stevioside]: the development of plaque result is on record as ““significantly” inhibits the development of plaque”.
